According to paper PMC4300089, “Structure-Guided Design of Selective Epac1 and Epac2 Agonists” (PLoS Biology, 2015):

Key:
Format in all cases: biochemical
Epac2^fl = molecular target: T1, Epac2^fl (Mus musculus, UniProt Q9EQZ6); experiment: Epac activation assay, full length Epac2; set-up: made in house
T1 sequence (Q9EQZ6 1-993 isoform Q9EQZ6-3): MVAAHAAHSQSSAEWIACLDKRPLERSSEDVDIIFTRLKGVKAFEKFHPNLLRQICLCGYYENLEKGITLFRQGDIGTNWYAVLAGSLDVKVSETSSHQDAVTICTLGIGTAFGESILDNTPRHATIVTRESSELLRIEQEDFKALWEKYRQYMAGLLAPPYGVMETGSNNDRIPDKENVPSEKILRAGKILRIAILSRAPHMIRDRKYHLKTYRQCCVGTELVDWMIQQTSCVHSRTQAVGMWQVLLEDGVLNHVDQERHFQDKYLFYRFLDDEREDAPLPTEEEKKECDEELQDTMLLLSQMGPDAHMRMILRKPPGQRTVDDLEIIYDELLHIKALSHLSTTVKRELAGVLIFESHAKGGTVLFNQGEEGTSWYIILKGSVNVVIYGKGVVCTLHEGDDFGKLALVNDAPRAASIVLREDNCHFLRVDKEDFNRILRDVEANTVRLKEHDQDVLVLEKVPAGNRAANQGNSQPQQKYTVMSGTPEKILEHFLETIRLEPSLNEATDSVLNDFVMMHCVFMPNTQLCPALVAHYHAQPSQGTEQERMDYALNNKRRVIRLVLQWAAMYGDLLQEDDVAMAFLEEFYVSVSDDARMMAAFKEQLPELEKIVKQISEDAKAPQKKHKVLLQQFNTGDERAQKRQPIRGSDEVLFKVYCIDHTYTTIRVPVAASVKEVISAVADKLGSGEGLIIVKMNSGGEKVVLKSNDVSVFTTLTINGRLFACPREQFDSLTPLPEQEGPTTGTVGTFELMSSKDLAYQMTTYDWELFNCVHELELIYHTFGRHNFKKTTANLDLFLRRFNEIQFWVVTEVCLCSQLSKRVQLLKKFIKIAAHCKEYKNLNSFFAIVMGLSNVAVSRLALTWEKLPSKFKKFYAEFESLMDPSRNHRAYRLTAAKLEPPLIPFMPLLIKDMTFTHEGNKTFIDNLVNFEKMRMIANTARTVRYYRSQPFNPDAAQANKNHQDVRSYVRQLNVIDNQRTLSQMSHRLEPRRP
Description: Murine Epac2 was used as all previous structural studies were performed with it.
The activity of Epac was determined by a fluorescence assay. […] The fluorescence intensity of Rap1B•mGDP is approximately twice that of free mGDP, and thus, nucleotide exchange can be observed as a decay in fluorescence upon the addition of excess unlabeled GDP.

PKA-IIβ = molecular target: T2, PKA-IIβ (Homo sapiens, UniProt P31323); experiment: PKA activity assay, PKA-IIβ; details: PKAIIβ
T2 construct: made in house
T2 sequence (P31323 whole entry): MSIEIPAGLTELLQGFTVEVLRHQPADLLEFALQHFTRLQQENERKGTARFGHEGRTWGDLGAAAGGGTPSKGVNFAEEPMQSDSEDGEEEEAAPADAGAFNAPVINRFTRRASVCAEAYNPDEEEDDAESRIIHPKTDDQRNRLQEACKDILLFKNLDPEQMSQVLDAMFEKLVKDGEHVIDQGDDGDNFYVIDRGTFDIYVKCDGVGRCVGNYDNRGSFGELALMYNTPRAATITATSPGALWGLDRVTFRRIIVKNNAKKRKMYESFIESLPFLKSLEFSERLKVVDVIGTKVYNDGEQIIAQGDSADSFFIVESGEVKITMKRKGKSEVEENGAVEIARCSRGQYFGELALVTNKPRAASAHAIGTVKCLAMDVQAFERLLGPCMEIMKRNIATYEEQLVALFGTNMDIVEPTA
Description: (§1) The recombinant human PKA catalytic subunit (Cα1) and the four human PKA regulatory subunits (RIα, RIβ, RIIα, RIIβ) were expressed, purified, and characterized as described. […] PKA holoenzymes were formed by mixing the R- and C-subunit at a molar ratio of 1.2:1 and extensive dialysis against 20 mM MOPS (pH 7.0), 150 mM NaCl, 2.5 mM β-mercaptoethanol, supplemented with 1 mM ATP and 10 mM MgCl2 for PKA-I at 4°C overnight. PKA holoenzymes were used at about 20 nM for the activation assay. The apparent activation constants (Kact) were determined by fitting the concentration-dependent activity to a sigmoid dose-response model.

PKA-Iα = molecular target: T3, PKA-Iα (Homo sapiens, UniProt P10644); experiment: PKA activity assay (coupled spectrophotometric, Kemptide), PKA-Iα; details: PKAIα
T3 construct: made in house
T3 sequence (P10644 whole entry): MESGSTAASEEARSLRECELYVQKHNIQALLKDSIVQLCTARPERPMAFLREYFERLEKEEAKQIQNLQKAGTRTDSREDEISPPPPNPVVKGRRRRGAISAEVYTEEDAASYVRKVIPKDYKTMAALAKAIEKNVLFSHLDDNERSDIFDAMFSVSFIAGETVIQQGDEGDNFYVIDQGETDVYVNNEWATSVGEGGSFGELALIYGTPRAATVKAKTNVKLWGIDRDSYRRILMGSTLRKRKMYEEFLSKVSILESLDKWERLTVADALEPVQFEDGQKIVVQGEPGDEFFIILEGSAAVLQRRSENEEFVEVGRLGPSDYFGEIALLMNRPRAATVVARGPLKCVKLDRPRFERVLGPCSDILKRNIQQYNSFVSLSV
Description: as §1

PKA-Iβ = molecular target: T4, PKA-Iβ (Homo sapiens, UniProt P31321); experiment: PKA activity assay, PKA-Iβ; details: PKAIβ
T4 construct: made in house
T4 sequence (P31321 whole entry): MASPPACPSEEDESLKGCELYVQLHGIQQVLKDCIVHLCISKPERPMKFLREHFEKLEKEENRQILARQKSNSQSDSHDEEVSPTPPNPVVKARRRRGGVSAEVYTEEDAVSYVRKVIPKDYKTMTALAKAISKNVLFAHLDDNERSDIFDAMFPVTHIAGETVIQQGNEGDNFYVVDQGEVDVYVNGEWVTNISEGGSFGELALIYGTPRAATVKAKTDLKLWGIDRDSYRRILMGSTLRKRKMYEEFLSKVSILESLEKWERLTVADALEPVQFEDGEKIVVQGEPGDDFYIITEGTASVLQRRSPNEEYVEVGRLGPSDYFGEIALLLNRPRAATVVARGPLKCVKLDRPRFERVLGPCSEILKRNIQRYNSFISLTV
Description: as §1

SMILES: Nc1ncnc2c1ncn2[C@@H]1O[C@@H]2COP(=O)(O)O[C@H]2[C@H]1O [cAMP, reference compound]
- kobs (Epac2^fl; 0.2 μM compound): 1.9e-05 s⁻¹
- kobs (Epac2^fl; 0.3 μM compound): 2e-05 s⁻¹
- kobs (Epac2^fl; 0.4 μM compound): 2.1e-05 s⁻¹
- kobs (Epac2^fl; 0.5 μM compound): 2.1e-05 s⁻¹
- kobs (Epac2^fl; 0.6 μM compound): 2.5e-05 s⁻¹
- kobs (Epac2^fl; 0.7 μM compound): 2.36e-05 s⁻¹
- kobs (Epac2^fl; 0.8 μM compound): 2.47e-05 s⁻¹
- kobs (Epac2^fl; 1 μM compound): 2.84e-05 s⁻¹
- kobs (Epac2^fl; 2 μM compound): 3.47e-05 s⁻¹
- kobs (Epac2^fl; 3 μM compound): 4.1e-05 s⁻¹
- kobs (Epac2^fl; 4 μM compound): 4.71e-05 s⁻¹
- kobs (Epac2^fl; 5 μM compound): 5.23e-05 s⁻¹
- kobs (Epac2^fl; 6 μM compound): 5.05e-05 s⁻¹
- kobs (Epac2^fl; 7 μM compound): 5.49e-05 s⁻¹
- kobs (Epac2^fl; 8 μM compound): 6.35e-05 s⁻¹
- kobs (Epac2^fl; 10 μM compound): 7.22e-05 s⁻¹
- kobs (Epac2^fl; 20 μM compound): 0.000116 s⁻¹
- kobs (Epac2^fl; 30 μM compound): 0.000142 s⁻¹
- kobs (Epac2^fl; 40 μM compound): 0.000159 s⁻¹
- kobs (Epac2^fl; 50 μM compound): 0.000167 s⁻¹
- kobs (Epac2^fl; 60 μM compound): 0.000192 s⁻¹
- kobs (Epac2^fl; 70 μM compound): 0.000198 s⁻¹
- kobs (Epac2^fl; 80 μM compound): 0.000203 s⁻¹
- kobs (Epac2^fl; 100 μM compound): 0.000207 s⁻¹
- kobs (Epac2^fl; 200 μM compound): 0.000219 s⁻¹
- kobs (Epac2^fl; 400 μM compound): 0.000212 s⁻¹
- kobs (Epac2^fl; 600 μM compound): 0.000207 s⁻¹
- kobs (Epac2^fl; 800 μM compound): 0.000224 s⁻¹
- A (PKA activity) (PKA-IIβ; concentration 1 μM): 2.14E+01 U/mg
- A (PKA activity) (PKA-IIβ; concentration 1.00E+01 μM): 2.50E+01 U/mg
- A (PKA activity) (PKA-IIβ; concentration 1.00E+02 μM): 2.46E+01 U/mg
- A (PKA activity) (PKA-IIβ; concentration 1.00E-01 μM): 1.13E+01 U/mg
- A (PKA activity) (PKA-IIβ; concentration 1.00E-02 μM): 4.087 U/mg
- A (PKA activity) (PKA-IIβ; concentration 1.00E-03 μM): 4.309 U/mg
- A (PKA activity) (PKA-IIβ; concentration 1.00E-04 μM): 4.252 U/mg
- A (PKA activity) (PKA-IIβ; concentration 1.00E-05 μM): 2.8563 U/mg
- A (PKA activity) (PKA-IIβ; concentration 2.50E-01 μM): 1.57E+01 U/mg
- A (PKA activity) (PKA-IIβ; concentration 2.50E-02 μM): 5.477 U/mg
- A (PKA activity) (PKA-IIβ; concentration 5.00E-01 μM): 1.81E+01 U/mg
- A (PKA activity) (PKA-IIβ; concentration 5.00E-02 μM): 9.071 U/mg
- A (PKA activity) (PKA-Iα; concentration 1 μM): 2.37E+01 U/mg
- A (PKA activity) (PKA-Iα; concentration 1.00E+01 μM): 2.34E+01 U/mg
- A (PKA activity) (PKA-Iα; concentration 1.00E+02 μM): 2.51E+01 U/mg
- A (PKA activity) (PKA-Iα; concentration 1.00E-01 μM): 1.43E+01 U/mg
- A (PKA activity) (PKA-Iα; concentration 1.00E-02 μM): 4.4268 U/mg
- A (PKA activity) (PKA-Iα; concentration 1.00E-03 μM): 1.4399 U/mg
- A (PKA activity) (PKA-Iα; concentration 1.00E-05 μM): 2.9393 U/mg
- A (PKA activity) (PKA-Iα; concentration 2.50E-01 μM): 1.93E+01 U/mg
- A (PKA activity) (PKA-Iα; concentration 2.50E-02 μM): 7.9492 U/mg
- A (PKA activity) (PKA-Iα; concentration 5.00E-02 μM): 9.6152 U/mg
- A (PKA activity) (PKA-Iβ; concentration 1 μM): 2.35E+01 U/mg
- A (PKA activity) (PKA-Iβ; concentration 1.00E+01 μM): 2.37E+01 U/mg
- A (PKA activity) (PKA-Iβ; concentration 1.00E+02 μM): 2.44E+01 U/mg
- A (PKA activity) (PKA-Iβ; concentration 1.00E-01 μM): 2.23E+01 U/mg
- A (PKA activity) (PKA-Iβ; concentration 1.00E-02 μM): 7.2375 U/mg
- A (PKA activity) (PKA-Iβ; concentration 1.00E-03 μM): 2.9 U/mg
- A (PKA activity) (PKA-Iβ; concentration 1.00E-05 μM): 4.525 U/mg
- A (PKA activity) (PKA-Iβ; concentration 2.50E-02 μM): 1.08E+01 U/mg
- A (PKA activity) (PKA-Iβ; concentration 5.00E-02 μM): 1.54E+01 U/mg
